Structures can show the parent of a compound that is named as a salt.
Columns and labels:
[1] = target: T1, PI3Kβ (Homo sapiens, UniProt P42338); experiment: Isozyme selectivity test: kinase assay of PI3Kβ (p110β assay); assay type: biochemical; conditions: recombinant truncated p110β, 7.5 ng protein/well
T1 construct: His6 (N); made in house; host or cells: S. frugiperda 9 (Sf9) insect cells
Description: [Isozyme Selectivity Test in PI3K]
Determination of IC50 Values of Compounds in Kinase Assays of PI3Kβ and PI3Kγ

[2] = target: T2, PI3Kα (Homo sapiens, UniProt P42336); experiment: Solid-phase lipid kinase assay of PI3Kα (p110α assay); assay type: biochemical; conditions: recombinant truncated human p110α, 10 μM ATP
T2 construct: His6 (N); made in house; host or cells: S. frugiperda 9 (Sf9) insect cells
Description: [Determination of IC50 Values of Compounds in Kinase Assay of PI3Kα]
LABORATORIES (Toronto, Canada). […] [γ^33P]ATP and unlabeled ATP were purchased from […] […] BIOTECH (Buckinghamshire, UK) and ROCHE DIAGNOSTICS (Mannheim, Germany), respectively. Scintillation cocktails and MicroScint PS™ were purchased from PACKARD (Meriden, Conn.). Maxisorp™ plates were purchased from NALGE NUNC INTERNATIONAL K.K. (Tokyo, Japan). All other chemicals not further specified were from WAKO PURE CHEMICALS (Osaka, Japan).
The plates were subsequently air-dried by incubation for at least 2 hours in a fume hood. The reaction was set up by mixing 25 μL/well of assay buffer 2×(100 mM MOPSO/NaOH, 0.2 M NaCl, pH 7.0, 8 mM MgCl2, 2 mg/mL BSA (fatty acid-free)), and 7.5 ng/well PI3Kα in the lipid pre-coated plate. 100× test compounds were added in 2% DMSO. The reaction was started by adding 20 μL/well of ATP mix (final 10 μM ATP; 0.05 μCi/well [γ^33P]ATP). After incubation at RT for 2 hours, the reaction was terminated by adding 50 μl/well stop solution (50 mM EDTA, pH 8.0). The plate was then washed twice with Tris-buffered saline (TBS, pH 7.4). MicroScint PS™ (PACKARD) scintillation mix was added at 100 μL/well, and radioactivity was counted using a TopCount™ (PACKARD) scintillation counter.
The inhibition percent at each concentration of compound was calculated, and IC50 values were determined from the inhibition of curve.

[3] = test system: IGF-1 induced AKT phosphorylation in A549 cells; experiment: IGF-1 induced AKT phosphorylation assay (A549 cell assay); assay type: cell-based; conditions: Homo sapiens; A549 cells, 25 ng/ml IGF-1, phospho-AKT(Ser 473); read-out: average IC50 in the A549 cell assay
Outline: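 A549 cells stimulated with 25 ng/ml IGF-1 for 10 min at 37 °C, then fixed in formaldehyde/methanol. Phospho-AKT detected by cell ELISA (primary anti-phospho-AKT, HRP secondary, ECL luminescence); IC50 from inhibition curve.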

T2 sequence (P42336 109-1068): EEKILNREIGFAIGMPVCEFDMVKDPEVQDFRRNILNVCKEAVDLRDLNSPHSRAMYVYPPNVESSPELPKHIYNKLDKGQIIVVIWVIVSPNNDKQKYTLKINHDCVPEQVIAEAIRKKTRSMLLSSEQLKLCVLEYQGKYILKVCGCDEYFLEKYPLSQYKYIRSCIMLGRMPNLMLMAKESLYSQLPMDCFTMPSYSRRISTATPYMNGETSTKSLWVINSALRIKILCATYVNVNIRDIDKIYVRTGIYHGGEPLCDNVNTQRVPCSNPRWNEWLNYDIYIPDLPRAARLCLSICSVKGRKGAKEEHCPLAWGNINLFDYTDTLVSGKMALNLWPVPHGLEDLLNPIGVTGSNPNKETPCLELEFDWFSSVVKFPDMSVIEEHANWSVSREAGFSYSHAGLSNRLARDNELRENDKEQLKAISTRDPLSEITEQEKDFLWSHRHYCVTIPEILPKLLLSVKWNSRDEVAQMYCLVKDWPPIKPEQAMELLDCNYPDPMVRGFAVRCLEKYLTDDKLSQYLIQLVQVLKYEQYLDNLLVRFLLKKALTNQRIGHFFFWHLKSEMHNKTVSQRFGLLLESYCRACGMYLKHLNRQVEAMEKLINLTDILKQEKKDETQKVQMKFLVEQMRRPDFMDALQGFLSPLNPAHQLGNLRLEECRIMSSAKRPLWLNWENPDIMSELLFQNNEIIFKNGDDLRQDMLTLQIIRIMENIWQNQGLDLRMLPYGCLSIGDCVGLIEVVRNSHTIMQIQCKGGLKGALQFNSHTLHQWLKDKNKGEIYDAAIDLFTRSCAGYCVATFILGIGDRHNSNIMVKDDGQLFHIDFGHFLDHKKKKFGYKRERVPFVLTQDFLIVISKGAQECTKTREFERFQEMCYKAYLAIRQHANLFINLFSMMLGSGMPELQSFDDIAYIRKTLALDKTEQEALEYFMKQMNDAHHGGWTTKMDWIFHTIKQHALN
T1 sequence (P42338 109-1070): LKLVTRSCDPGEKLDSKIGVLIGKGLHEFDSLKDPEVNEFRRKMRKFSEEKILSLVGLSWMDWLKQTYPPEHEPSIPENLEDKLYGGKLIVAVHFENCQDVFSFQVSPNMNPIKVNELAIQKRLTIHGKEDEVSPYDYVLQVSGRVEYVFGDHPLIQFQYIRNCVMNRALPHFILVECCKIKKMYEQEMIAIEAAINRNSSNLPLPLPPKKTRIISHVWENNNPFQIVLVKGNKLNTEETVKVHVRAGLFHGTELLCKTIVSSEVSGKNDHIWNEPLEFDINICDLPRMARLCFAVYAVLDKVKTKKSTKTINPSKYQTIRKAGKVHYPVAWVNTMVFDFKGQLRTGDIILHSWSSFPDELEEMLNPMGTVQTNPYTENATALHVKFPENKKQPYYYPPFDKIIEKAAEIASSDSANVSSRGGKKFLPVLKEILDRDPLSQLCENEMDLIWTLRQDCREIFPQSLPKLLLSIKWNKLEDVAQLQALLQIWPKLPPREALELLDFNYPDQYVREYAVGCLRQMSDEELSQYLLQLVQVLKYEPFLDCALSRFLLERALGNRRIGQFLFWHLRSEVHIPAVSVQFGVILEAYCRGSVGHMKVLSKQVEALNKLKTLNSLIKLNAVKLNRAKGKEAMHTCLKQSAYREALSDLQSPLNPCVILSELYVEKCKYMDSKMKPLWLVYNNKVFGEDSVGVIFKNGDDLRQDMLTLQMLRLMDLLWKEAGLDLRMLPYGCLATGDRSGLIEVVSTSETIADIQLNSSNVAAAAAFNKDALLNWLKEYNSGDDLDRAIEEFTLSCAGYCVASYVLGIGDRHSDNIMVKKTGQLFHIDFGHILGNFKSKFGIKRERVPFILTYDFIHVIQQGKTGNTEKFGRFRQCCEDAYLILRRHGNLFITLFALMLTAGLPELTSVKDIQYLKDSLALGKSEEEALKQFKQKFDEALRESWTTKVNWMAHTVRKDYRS

SMILES | IC50 [1] | IC50 [2] | IC50 [3]
COc1c(OCCCN2CCOCC2)ccc2c1N=C(NC(=O)c1cnc(N3CCOCC3)nc1)N1CCN=C21 [Example 49, N-[7-methoxy-8-(3-morpholin-4-ylpropoxy)-2,3-dihydroimidazo[1,2-c]quinazolin-5-yl]-2-morpholin-4-ylpyrimidine-5-carboxamide] | 10 to 100 nM | 10 to 100 nM | 
COc1c(OCCCN2CCOCC2)ccc2c1N=C(NC(=O)c1ccc(N3CCNCC3)nc1)N1CCN=C21 [Example 50, N-[7-methoxy-8-(3-morpholin-4-ylpropoxy)-2,3-dihydroimidazo[1,2-c]quinazolin-5-yl]-6-piperazin-1-ylnicotinamide hydrochloride] | 10 to 100 nM | 10 to 100 nM | > 1000 nM
COc1c(OCCCN2CCOCC2)ccc2c1N=C(NC(=O)c1ccc(-n3cccc3)nc1)N1CCN=C21 [Example 56, N-[7-methoxy-8-(3-morpholin-4-ylpropoxy)-2,3-dihydroimidazo[1,2-c]quinazolin-5-yl]-6-(1H-pyrrol-1-yl)nicotinamide] | 10 to 100 nM | 10 to 100 nM | > 1000 nM
COc1c(OCCCN2C[C@@H](C)O[C@@H](C)C2)ccc2c1N=C(NC(=O)c1cnc(N)nc1)N1CCN=C21 [Example 38, rel-2-amino-N-(8-{3-[(2R,6S)-2,6-dimethylmorpholin-4-yl]propoxy}-7-methoxy-2,3-dihydroimidazo[1,2-c]quinazolin-5-yl)pyrimidine-5-carboxamide] | < 10 nM | < 10 nM | < 100 nM
COc1c(OCCCN2CCOCC2)ccc2c1N=C(NC(=O)c1cnc(N3CCN(C)CC3)nc1)N1CCN=C21 [Example 48, N-[7-methoxy-8-(3-morpholin-4-ylpropoxy)-2,3-dihydroimidazo[1,2-c]quinazolin-5-yl]-2-(4-methylpiperazin-1-yl)pyrimidine-5-carboxamide] | > 100 nM | > 100 nM | > 1000 nM
COc1c(OCCCN2CCOC[C@@H]2C)ccc2c1N=C(NC(=O)c1cccnc1)N1CCN=C21 [Example 17, N-{7-methoxy-8-[3-(3-methylmorpholin-4-yl)propoxy]-2,3-dihydroimidazo[1,2-c]quinazolin-5-yl}nicotinamide] | 10 to 100 nM | 10 to 100 nM | 
COc1c(OCCC2CN(CC3CCC3)CCO2)ccc2c1N=C(NC(=O)c1cccnc1)N1CCN=C21 (stereo not shown) [Example 19, N-(8-{2-[4-(cyclobutylmethyl)morpholin-2-yl]ethoxy}-7-methoxy-2,3-dihydroimidazo[1,2-c]quinazolin-5-yl)nicotinamide] | < 10 nM | < 10 nM | < 100 nM
COc1c(OCCCN2CCOCC2)ccc2c1N=C(NC(=O)c1ccc(CCN3CCCC3)nc1)N1CCN=C21 [Example 14, N-[7-methoxy-8-(3-morpholin-4-ylpropoxy)-2,3-dihydroimidazo[1,2-c]quinazolin-5-yl]-6-(2-pyrrolidin-1-ylethyl)nicotinamide] | 10 to 100 nM | 10 to 100 nM | > 1000 nM
COc1c(OCCCN2CCOCC2)ccc2c1N=C(NC(=O)c1cnc(N3CCCC3)nc1)N1CCN=C21 [Example 47, N-[7-methoxy-8-(3-morpholin-4-ylpropoxy)-2,3-dihydroimidazo[1,2-c]quinazolin-5-yl]-2-pyrrolidin-1-ylpyrimidine-5-carboxamide] | 10 to 100 nM | 10 to 100 nM | < 100 nM
COc1c(OCCCN2CCOCC2)ccc2c1N=C(NC(=O)c1ccnc(N)n1)N1CCN=C21 [Example 25, 2-amino-N-[7-methoxy-8-(3-morpholin-4-ylpropoxy)-2,3-dihydroimidazo[1,2-c]quinazolin-5-yl]pyrimidine-4-carboxamide] | 10 to 100 nM | 10 to 100 nM | > 1000 nM
COc1c(OCCCN2C[C@@H](C)O[C@@H](C)C2)ccc2c1N=C(NC(=O)c1ccc(C)nc1)N1CCN=C21 [Example 28, rel-N-(8-{3-[(2R,6S)-2,6-dimethylmorpholin-4-yl]propoxy}-7-methoxy-2,3-dihydroimidazo[1,2-c]quinazolin-5-yl)-6-methylnicotinamide] | < 10 nM | < 10 nM | < 100 nM
COc1c(OCCCN2CCOCC2)ccc2c1N=C(NC(=O)c1cccs1)N1CCN=C21 [Example 93, N-[7-methoxy-8-(3-morpholin-4-ylpropoxy)-2,3-dihydroimidazo[1,2-c]quinazolin-5-yl]thiophene-2-carboxamide] | 10 to 100 nM | 10 to 100 nM | 100 to 1000 nM
COc1c(OCCCN2CCOCC2)ccc2c1N=C(NC(=O)c1ccc(NCc3ccc(F)cc3)nc1)N1CCN=C21 [Example 53, 6-[(4-fluorobenzyl)amino]-N-[7-methoxy-8-(3-morpholin-4-ylpropoxy)-2,3-dihydroimidazo[1,2-c]quinazolin-5-yl]nicotinamide] | 10 to 100 nM | 10 to 100 nM | > 1000 nM
COc1c(OCCCN2CCOCC2)ccc2c1N=C(NC(=O)c1csc(C)n1)N1CCN=C21 [Example 98, N-[7-methoxy-8-(3-morpholin-4-ylpropoxy)-2,3-dihydroimidazo[1,2-c]quinazolin-5-yl]-2-methyl-1,3-thiazole-4-carboxamide] | 10 to 100 nM | 10 to 100 nM | > 1000 nM
CCN1CCOC(COc2ccc3c(c2OC)N=C(NC(=O)c2cccnc2)N2CCN=C32)C1 (stereo not shown) [Example 21, N-{8-[(4-ethylmorpholin-2-yl)methoxy]-7-methoxy-2,3-dihydroimidazo[1,2-c]quinazolin-5-yl}nicotinamide] | 10 to 100 nM | 10 to 100 nM | < 100 nM
COc1c(OCCCN2CCOCC2)ccc2c1N=C(NC(=O)c1ccncn1)N1CCN=C21 [Example 24, N-[7-methoxy-8-(3-morpholin-4-ylpropoxy)-2,3-dihydroimidazo[1,2-c]quinazolin-5-yl]pyrimidine-4-carboxamide] | > 100 nM | > 100 nM | > 1000 nM
COc1c(OCCCN2CCOCC2)ccc2c1N=C(NC(=O)c1ccc(C(F)(F)F)nc1)N1CCN=C21 [Example 62, N-[7-methoxy-8-(3-morpholin-4-ylpropoxy)-2,3-dihydroimidazo[1,2-c]quinazolin-5-yl]-6-(trifluoromethyl)nicotinamide] | 10 to 100 nM | 10 to 100 nM | 100 to 1000 nM
COc1c(OCCCN2CCOCC2)ccc2c1N=C(NC(=O)c1cnc(NCCCN3CCOCC3)nc1)N1CCN=C21 [Example 43, N-[7-methoxy-8-(3-morpholin-4-ylpropoxy)-2,3-dihydroimidazo[1,2-c]quinazolin-5-yl]-2-[(3-morpholin-4-ylpropyl)amino]pyrimidine-5-carboxamide] | 10 to 100 nM | 10 to 100 nM | > 1000 nM
COc1c(OCCCN2C[C@@H](C)O[C@@H](C)C2)ccc2c1N=C(NC(=O)c1ccc(N)nc1)N1CCN=C21 [Example 39, rel-6-amino-N-(8-{3-[(2R,6S)-2,6-dimethylmorpholin-4-yl]propoxy}-7-methoxy-2,3-dihydroimidazo[1,2-c]quinazolin-5-yl)nicotinamide] | < 10 nM | < 10 nM | < 100 nM
COc1c(OCCCN2CCOCC2)ccc2c1N=C(NC(=O)c1ccc(OCC(F)(F)F)nc1)N1CCN=C21 [Example 61, N-[7-methoxy-8-(3-morpholin-4-ylpropoxy)-2,3-dihydroimidazo[1,2-c]quinazolin-5-yl]-6-(2,2,2-trifluoroethoxy)nicotinamide] | 10 to 100 nM | 10 to 100 nM | 100 to 1000 nM
COc1c(OCCCN2CCOCC2)ccc2c1N=C(NC(=O)c1cn(C)cn1)N1CCN=C21 [Example 26, N-[7-methoxy-8-(3-morpholin-4-ylpropoxy)-2,3-dihydroimidazo[1,2-c]quinazolin-5-yl]-1-methyl-1H-imidazole-4-carboxamide] | 10 to 100 nM | 10 to 100 nM | > 1000 nM
COc1c(OCCCN2C[C@@H](C)O[C@@H](C)C2)ccc2c1N=C(NC(=O)c1cncnc1)N1CCN=C21 [Example 27, rel-N-(8-{3-[(2R,6S)-2,6-dimethylmorpholin-4-yl]propoxy}-7-methoxy-2,3-dihydroimidazo[1,2-c]quinazolin-5-yl)pyrimidine-5-carboxamide] | < 10 nM | < 10 nM | < 100 nM
COc1c(OCCCN2CCOCC2)ccc2c1N=C(NC(=O)c1ccc(NC3CCCC3)nc1)N1CCN=C21 [Example 15, 6-(cyclopentylamino)-N-[7-methoxy-8-(3-morpholin-4-ylpropoxy)-2,3-dihydroimidazo[1,2-c]quinazolin-5-yl]nicotinamide] | 10 to 100 nM | 10 to 100 nM | > 1000 nM

Reference: patent USRE46856E1, “Substituted 2,3-dihydroimidazo[1,2-c]quinazoline derivatives useful for treating hyper-proliferative disorders and diseases associated with angiogenesis” (Bayer Intellectual Property GmbH, priority 2006, dated 2018)
